Data from patent US5846566A, “Microcapsules for the controlled release of acetylsalicylic acid in the gastrointestinal environment” (Flamel Technologies, priority 1993, dated 1998).

Tests used:
[1] = acute oral toxicity in rats; format: in vivo, rat (Sprague-Dawley); conditions: rat, in vivo, 14 days
Protocol: (§1) The microcapsules of aspirin M1 prepared according to Example 1 were subjected to a toxicological study by comparison with commercial aspirin (CA) in the form of a white powder. The acute toxicity of these two pharmaceutical forms of aspirin was evaluated and compared by oral administration to rats.
(§2) Each of the two formulations of the product was administered orally to groups of 10 Sprague-Dawley rats (5 males and 5 females) in a volume of 10 ml/kg and in suspension in 0.5% carboxymethyl cellulose. […] All the animals were placed on a water diet before the treatment.
(§3) The mortality, the general behavior and the weight change of the surviving animals were followed for a period of 14 days after the single administration of the product. An anatomicopathological examination was carried out on each of the animals found dead or sacrificed at the end of the study.
(§4) The LD50 was calculated by Finney's method.

Sprague-Dawley rats = experiment: acute oral toxicity in rats; format: in vivo, rat (Sprague-Dawley)
Protocol: as §1, §2, §3, §4

serum thromboxane B2 = experiment: inhibition of serum thromboxane B2 after repeated administration for 28 days; format: in vivo, human; conditions: as from the third day of treatment; 320 mg encapsulated or 350 mg control ASA daily
Protocol: (§5) Twelve healthy male volunteers were assigned to one or other of the following two treatments according to a randomization schedule obtained by drawing lots. Group A received one 320 mg gelatin capsule of encapsulated ASA (microcapsules M1 of Example 1) orally every morning for 28 days. Group B received 350 mg of non-encapsulated control ASA in solution every morning for 28 days.
In both cases, the subjects took the treatments with 200 ml of water.
Samples (5 cl) for measurement of the serum thromboxane B2 were taken before administration of the daily treatment on D1, D2, D3, D4, D5, D14, D21, D27, D28 and D42.
The aspirin and salicylic acid were analyzed using an HPLC method specially developed for assaying low levels in biological media. The serum thromboxane B2 was analyzed using an enzyme immunoassay method described by […] et al. [Analytical Chemistry 57, 1170-1173 (1985); Ann. Biol. Clin. 43, 475-484 (1985)]. For the urine samples, the 11-dehydrothromboxane B2, dinorthromboxane B2 and dinor-6-ketoprostaglandin F1α were analyzed by the method cited above, with prior extraction in the solid phase and purification by thin layer chromatography. This method was validated by gas chromatography coupled with mass spectrometry using a negative ion ionization detector [LELLOUCHE et al., Prostaglandine 40, 297-310 (1990)].

11-dehydrothromboxane B2 = experiment: inhibition of urinary 11-dehydrothromboxane B2, repeated administration; format: in vivo, human; conditions: 28 days; 320 mg encapsulated or 350 mg control ASA daily
Protocol: as §5
(§6) During each period, urine samples were taken from each subject for assaying the creatininuria and measuring the platelet and vascular prostaglandins.
(§7) The morning urine was collected at 7 am on days D1, D2, D14, D27 and D28. The subjects were asked to empty their bladder between midnight and 1 am and then not to urinate again until the morning so that the 6-hour urine could be obtained. The morning urination was performed before the subjects got up. Of each sample collected: […]
(§8) The aspirin and salicylic acid were analyzed using an HPLC method specially developed for assaying low levels in biological media. The serum thromboxane B2 was analyzed using an enzyme immunoassay method described by […] et al. [Analytical Chemistry 57, 1170-1173 (1985); Ann. […] For the urine samples, the 11-dehydrothromboxane B2, dinorthromboxane B2 and dinor-6-ketoprostaglandin F1α were analyzed by the method cited above, with prior extraction in the solid phase and purification by thin layer chromatography. […]

[2] = tested on: urinary dinorthromboxane B2; experiment: inhibition of urinary dinorthromboxane B2, repeated administration; format: in vivo, human; conditions: 28 days; 320 mg encapsulated or 350 mg control ASA daily
Protocol: as §5, §6, §7, §8

prostacycline = experiment: inhibition of prostacycline (urinary dinor-6-ketoprostaglandin F1α), repeated administration; format: in vivo, human; conditions: 28 days; 320 mg encapsulated or 350 mg control ASA daily
Protocol: as §5, §6, §7, §8

[3] = tested on: thromboxane B2 of renal origin; experiment: urinary excretion of thromboxane B2 (renal origin), repeated administration; format: in vivo, human; conditions: 28 days; 320 mg encapsulated or 350 mg control ASA daily
Protocol: as §5, §6
(§9) The morning urine was collected at 7 am on days D1, D2, D14, D27 and D28. The subjects were asked to empty their bladder between midnight and 1 am and then not to urinate again until the morning so that the 6-hour urine could be obtained. The morning urination was performed before the subjects got up. Of each sample collected:
(§10) 40 ml were transferred to two appropriately labeled 20 ml polypropylene tubes, which were then frozen immediately at -20° C.
(§11) Thromboxane B2 and 6-ketoprostaglandin F1α are metabolites of […] of renal origin.

6-ketoprostaglandin F1α = experiment: urinary excretion of 6-ketoprostaglandin F1α (renal origin), repeated administration; format: in vivo, human; conditions: 28 days; 320 mg encapsulated or 350 mg control ASA daily
Protocol: as §5, §6, §9, §10, §11

thromboxane = conditions: daily dose; very substantially below the minimum percentage; cited from earlier work
vascular prostacycline = conditions: daily dose; cited from earlier work

## CC(=O)Oc1ccccc1C(=O)O [CA, acetylsalicylic acid]
[1]
  LD50 at 336 h: 1430 mg/kg
Sprague-Dawley rats; 740 and 1110 mg/kg
  autopsy findings: no macroscopic anomalies
Sprague-Dawley rats; 1670 and 2500 mg/kg, animals found dead
  autopsy findings: abnormally blackish coloration of the liver, a discoloration with wall thickening in the digestive tract (intestines and stomach) and reddish petechiae in the stomach
Sprague-Dawley rats; CA 740-2500 mg/kg (between day 1 and day 5), CRA 2500 mg/kg (throughout the study)
  weight change: slight drop in the weight gain, related to the dose administered
Sprague-Dawley rats; CA 740-2500 mg/kg, CRA 2500 mg/kg
  general behavior: a drop in the spontaneous activity, related to the dose administered, and piloerection
Sprague-Dawley rats; probability threshold of 95%
  LD50, lower limit of the confidence interval: 936 mg/kg
  LD50, upper limit of the confidence interval: 2394 mg/kg

## CC(=O)Oc1ccccc1C(=O)O [control ASA, acetylsalicylic acid]
Serum thromboxane B2
  inhibition of thromboxane originating from the platelets: 98.15%
11-dehydrothromboxane B2
  inhibition of urinary metabolite of thromboxane (11-dehydrothromboxane B2, first value pair): 75.6%
[2]
  inhibition of urinary metabolite of thromboxane (dinorthromboxane B2, second value pair): 68.9%
prostacycline
  inhibition of the prostacycline: 43.2%
[3]
  inhibition of prostaglandins of renal origin (thromboxane B2, first value pair): 42.8%
6-ketoprostaglandin F1α
  inhibition of prostaglandins of renal origin (6-ketoprostaglandin F1α, second value pair): 34.6%

## CC(=O)Oc1ccccc1C(=O)O [conventional aspirin, acetylsalicylic acid]
thromboxane
  thromboxane inhibition: < 95%
Vascular prostacycline
  inhibition of vascular prostacycline: 25%
